# Measured values from patent US8021831B2, “Taxane chemosensitivity prediction test” (Board of Regents, The University of Texas System, priority 2003, dated 2011).
# How the values were obtained:
# [1] = tested on: MCF-7; assay: Paclitaxel cytotoxicity test (MTT assay); format: cell-based, human; conditions: 1, 5, 10, 50 or 100 nM paclitaxel, 72 hr
# Method: (§1) FIG. 5. Sensitivities of cell lines to Paclitaxel were judged according to a graph analysis of the Paclitaxel cytotoxicity test. […] The Paclitaxel cytotoxicity test was performed as follows. The cells were cultivated in wells of a 96-well culture plate in presence of 1, 5, 10, 50 or 100 nM Paclitaxel. After 72 hr cultivation, cell survival was measured by the MTT assay.
# (§2) Drug sensitivity assays. Cells were detached by trypsinization, seeded at 2.0×10^3 cells/well in a 96-well microtiter plate, and treated with various concentrations of paclitaxel (1, 5, 10, 50, 100 and 1000 nM). Seventy-two hr later, the effects on cell growth were examined by 3-(4,5-dimethylthiazol-2-yl)-2,5-diphenyl tetrazolium bromide (MTT) assay: 20 μl of MTT solution (5 mg/ml in phosphate-buffered saline; Sigma Aldrich) was added to each well, and the cells were incubated for 4 hr at 37° C. The MTT-formazan formed by metabolically viable cells was dissolved in 100 μl of cell lysis buffer, and […] was monitored using a microplate at a wavelength of 570 nm. The percentage of cell growth was calculated by defining the absorption of cells not treated with paclitaxel (control) as 100%.
# (§3) Sensitivities of four human breast cancer cell lines to paclitaxel were judged according to a graph analysis of the paclitaxel cytotoxicity test (FIG. 5). […] The paclitaxel cytotoxicity test was performed as follows. The cells were cultivated in wells of a 96-well culture plate in presence of 1, 5, 10, 50 or 100 nM paclitaxel. After 72 hr cultivation, cell survival was measured by the MTT assay.
# [2] = tested on: MDA-MB231; assay: Paclitaxel cytotoxicity test (MTT assay); format: cell-based, human; conditions: 1, 5, 10, 50 or 100 nM paclitaxel, 72 hr
# Method: as §1, §2, §3
# [3] = tested on: MDA-MB435; assay: Paclitaxel cytotoxicity test (MTT assay); format: cell-based, human; conditions: 1, 5, 10, 50 or 100 nM paclitaxel, 72 hr
# Method: as §1, §2, §3
# [4] = tested on: T47D; assay: Paclitaxel cytotoxicity test (MTT assay); format: cell-based, human; conditions: 1, 5, 10, 50 or 100 nM paclitaxel, 72 hr
# Method: as §1, §2, §3
# [5] = tested on: MCF-7 cells; assay: Mitotic indices after paclitaxel treatment; format: cell-based, human; conditions: MCF-7 control (siRNA/control) cells; paclitaxel 100 nM; 24 hr after treatment
# Method: FIG. 1C—Mitotic indices of each cell after treatment with paclitaxel. Twenty-four hr after transfection, cells were treated with paclitaxel (100 nM) and harvested at the indicated times.
# Calculation of mitotic indices. Cells with mitotic condensed chromatin were visualized by staining with 10 μM Hoechst 33342 dye (Aventis Pharmaceuticals Inc., Bridgewater, N.J.) in conjunction with 10 μg/ml propidium iodide; the propidium iodide was incorporated into dead cells only. […] The cells were harvested at 12, 24, and 36 hr after transfection and the mitotic indices calculated.
# (§9) To test the effects of suppression of Mad2, BubR1, or both on the spindle assembly checkpoint activated by paclitaxel, the mitotic indices were determined and the Cdk1 activity measured, both of which reflect the status of this checkpoint.
# [6] = tested on: Cdk1 activity in MCF-7 cells; assay: Cdk1 kinase assay after paclitaxel treatment; format: cell-based, human; conditions: MCF-7 control cells; paclitaxel 100 nM; 24 hr after treatment
# Method: Twenty-four hr after transfection, cells were treated with paclitaxel (100 nM) and harvested at the indicated times. FIG. 1D—Cyclin-dependent kinase-1 (Cdk1) activity after treatment with paclitaxel in each cell. Twenty-four hr after transfection, cells were treated with paclitaxel (100 nM) and harvested at the indicated times. Activity of Cdk1 in the lysates was determined as described in Experimental procedures.
# Cdk1 kinase assay. The Cdk1 protein kinase assay was performed using the SignaTECT cdc2 protein assay system (Promega, Madison, Wis.). Briefly, the harvested cells were lysed with the extraction buffer (50 mM Tris [pH 7.4], 150 mM NaCl, 0.1% Triton X-100, and 1 mM EDTA) containing protease inhibitors (100 μg/ml aprotinin and 0.5 mM phenylmethane sulphonyl fluoride) and phosphatase inhibitors (50 mM NaF). These lysates were conjugated with a substrate consisting of cdc2-specific biotinylated peptide derived from histone H1 and [γ-^32P] ATP, and incubated at 30° C. for 10 min. […] After several washings, each captured membrane was placed into a separate vial and analyzed using a liquid scintillation counter (Beckman Coulter, Palo Alto, Calif.).
# as §9
# [7] = tested on: MCF-7 cells; assay: Cell death analysis (trypan blue exclusion); format: cell-based, human; conditions: MCF-7 control cells, paclitaxel 100 nM, 48 hr
# Method: FIG. 2B—MCF-7 cells transfected with siRNA/Mad2, BubR1, or both were examined for cell death induced by paclitaxel. Twenty-four hr after transfection, cells were treated with paclitaxel (100 nM) for 48 hr. Cell viability was assessed using trypan blue exclusion assay.
# Cell death analysis. Cell death was evaluated using the trypan blue dye exclusion assay. Briefly, cells were harvested using trypsin and stained with 0.4% trypan blue dye (Sigma-Aldrich Chemical Co., St. Louis, Mo.). Trypan blue-positive and -negative cells were counted using a hemacytometer (Hausser Scientific, Horsham, Pa.) under a phase-contrast microscope (Fisher Scientific, Pittsburgh, Pa.). The results of each assay were expressed in terms of the percentage of dead cells relative to the total number of cells. Individual experiments were performed in triplicate.
# Next, to determine whether these resistances were due to the reduction of cell death induced by paclitaxel, the inventors assessed the population of cell death using trypan blue exclusion.
# [8] = tested on: susceptible tumor (tumor of MDA-MB231); assay: Tumor volume in tumor-bearing nude mice, susceptible tumor; format: in vivo; conditions: 20 mg paclitaxel per day i.p.
# Method: (§4) FIG. 7. The susceptible and resistant cells (1×10^7 cells/mouse) were inoculated into nude mice. When the tumor volume reached more than 300 mm^3, 20 mg of Paclitaxel per day was intraperitoneally administered on five consecutive days (Days 34-38 after the inoculations). The tumor size was recorded on Days 20-43. […] By contrast, the volume of resistant tumor remained at 350 mm^3 until Day 43.
# (§5) To further confirm the above in vitro results, an in vivo validation study was performed. The susceptible and resistant cells were inoculated into nude mice. When the tumor volume reached more than 300 mm^3, 20 mg of paclitaxel per day was intraperitoneally administered on five consecutive days (Days 34-38 after the inoculations). The tumor size was recorded on days 20-43. […] By contrast, volume of resistant tumors remained at 350 mm^3 until day 43.
# (§6) The susceptible and resistant cells (1×10^7 cells/mouse) were inoculated into nude mice. When the tumor volume reached more than 300 mm^3, 20 mg of paclitaxel per day was intraperitoneally administered on five consecutive days (Days 34-38 after the inoculations). The tumor size was recorded on days 20-43. […] By contrast, the volume of resistant tumor remained at 350 mm^3 until day 43 (FIG. 7).
# [9] = tested on: resistant tumor (tumor of T47D); assay: Tumor volume in tumor-bearing nude mice, resistant tumor; format: in vivo; conditions: 20 mg paclitaxel per day i.p., Days 34-38, until day 43
# Method: as §4, §5, §6
# [10] = tested on: CDK1 in tumor of MDA-MB231; assay: Cell cycle profiling of tumor tissue lysates, CDK1 specific activity; format: in vivo, nude mice; conditions: 24 hr after treatment
# Method: (§7) FIG. 8. Lysates of the tumor tissues from tumor-bearing mice were subjected to cell cycle profiling. […] These are (A1) CDK1 specific activity 24 hr after treatment; (A2) CDK2 specific activity before treatment; (E5) MAD2 expression before treatment; (E3) Cyclin E expression before treatment; (E4) p21 expression before treatment; and (E1) CDK6 expression before treatment. The value plotted in the graph was calculated by dividing with the bigger raw value between two tumors on the each parameter.
# (§8) Enzyme activity analyses of cell cycle profiling. Enzyme activity analyses of cell cycle profiling were performed using a non-radioisotopic method. Cell lysates were prepared as described for expression analysis. […] After three washes with washing buffer (0.1% NP-40, 50 mM Tris-Cl [pH 7.4]), 50 μl of the substrate mixture containing 10 μg of protein substrate, 5 mM adenosine 5′-O-(3-thiotriphosphate) (Sigma), 20 mM Tris-Cl (pH 7.4), and 0.1% Triton X-100 was added to the beads and incubated under continuous shaking at 37° C. for 10 min. Histone H1 (Upstate Biotechnology, Lake Placid, N.Y., USA) was used as the protein substrate for CDK1 and CDK2, and recombinant RB protein (amino acids 769-921) for CDK4 and CDK6. After the beads were removed, the introduced monothiophosphates in the substrate were further labeled by incubation with 10 mM iodoacetyl-biotin (Pierce) in coupling buffer (100 mM Tris-Cl [pH 8.5], 1 mM EDTA) for 90 min in the dark at room temperature. The reaction was quenched with β-mercaptoethanol, and 0.4 μg of the substrate was applied to the wells of the dot-blot device. The wells were blocked with 4% bovine serum albumin (BSA) for 30 min, then incubated with avidin-FITC (Vector) for 1 hr at 37° C.
# [11] = tested on: CDK1 in tumor of T47D; assay: as above; format: in vivo, nude mice; conditions: 24 hr after treatment
# Method: as §7, §8
# [12] = tested on: advanced drug refractory ovarian cancer; conditions: advanced drug refractory ovarian cancer patients; cited from earlier work
# [13] = tested on: previously treated metastatic breast cancer; conditions: previously treated metastatic breast cancer patients; cited from earlier work
# [14] = tested on: various lung cancers; conditions: patients; cited from earlier work
# [15] = tested on: microtubule site; conditions: higher than paclitaxel, same microtubule site; cited from earlier work
Compound,Sensitivity of cell line to paclitaxel (judged by graph analysis of cytotoxicity test) [1],Sensitivity of cell line to paclitaxel (judged by graph analysis of cytotoxicity test) [2],Sensitivity of cell line to paclitaxel (judged by graph analysis of cytotoxicity test) [3],Sensitivity of cell line to paclitaxel (judged by graph analysis of cytotoxicity test) [4],control cells arrested at mitosis [5],Cdk1 activity [6],levels of cell death [7],tumor volume before decrease (start value) ([8]; Days 34-38),"tumor volume after decrease (end value) ([8]; Days 34-38, recorded to day 43)",tumor volume remained at [9],"CDK1 specific activity (A1), divided by the bigger raw value [10]","CDK1 specific activity (A1), raw value [10]","CDK1 specific activity (A1), divided by the bigger raw value [11]","CDK1 specific activity (A1), raw value [11]",Response rate [12],Response rate [13],Response rate [14],affinity for the microtubule site relative to paclitaxel [15]
CC(=O)O[C@H]1C(=O)[C@@]2(C)[C@H]([C@H](OC(=O)c3ccccc3)[C@]3(O)C[C@H](OC(=O)[C@H](O)[C@@H](NC(=O)c4ccccc4)c4ccccc4)C(C)=C1C3(C)C)[C@]1(OC(C)=O)CO[C@@H]1C[C@@H]2O [paclitaxel],resistant,susceptible,susceptible,resistant,at least 80%,dramatic increase,high,460 mm^3,120 mm^3,350 mm^3,1.0,3.0 mU/ng of CDK1,0.067,0.2 mU/ng of CDK1,19-36%,27-62%,21-37%,
"CC(=O)O[C@@]12CO[C@@H]1C[C@H](O)[C@@]1(C)C(=O)[C@H](O)C3=C(C)[C@@H](OC(=O)[C@H](O)[C@@H](NC(=O)OC(C)(C)C)c4ccccc4)C[C@@](O)([C@@H](OC(=O)c4ccccc4)[C@H]21)C3(C)C [docetaxel, (2R,3S)-N-carboxy-3-phenylisoserine, N-tert-butyl ester, 13-ester with 5b-20-epoxy-12a,4,7b,10b,13a-hexahydroxytax-11-en-9-one 4-acetate 2-benzoate, trihydrate]",,,,,,,,,,,,,,,,,,1.9 fold
